PMC11968843, “Sulphostin-inspired N-phosphonopiperidones as selective covalent DPP8 and DPP9 inhibitors” (Nature Communications, 2025)
Where “and” joins values, the source holds several entries; their conditions need not be identical. Equal values may be shown once. Entries after “also recorded” stand apart in the source; their conditions may differ.

Key:
HeLa wild-type cells = assay: Cell viability assay (MTT), inhibitor alone; assay type: cell-based; settings: for Cell viability normalized to mock treated cells + 0 µM MMC: individual replicate values (Supplementary Figure 11a); for 95% confidence interval of difference: Figure 5d S11a, Ctrl. [-MMC] vs. compound [-MMC], Tukey's multiple comparisons test
Method: HeLa wild-type (HeLa Flp-In T-REx WT, kind gift from Prof. Matthias Hentze) and HeLa DPP9^KO cells (prepared in-house) were cultured in DMEM (ThermoFisher, USA) supplemented with 10% FBS (PAN Biotech, Germany), 2 mM L-Glutamin (ThermoFisher, USA) and 1% Penicillin/Streptomycin (100 U mL^−1 Penicillin and 100 µg mL^−1 Streptomycin, ThermoFisher, USA). Cells were seeded in 96-well flat-bottom cell culture plates (Greiner, Germany) at a concentration of 5 × 10^3 cells per well (37 °C and 5% CO2). The indicated concentration of Mitomycin C (MMC, Merck) was added to the cells 24 h after seeding, together with 10 µM of the indicated inhibitor. The inhibitors were refreshed every 24 h. Control cells were treated with DMSO.
Cell viability was measured 72 hours after the MMC treatment. For this, the medium was removed and replaced with phenol-red free DMEM (ThermoFisher, USA) containing 0.5 mg mL^−1 MTT (Sigma Aldrich, USA). Cells were incubated for 30 min at 37 °C, 5% CO2. Subsequently, the medium was removed and replaced by DMSO. The plates were shaken on an orbital shaker for 20 min before measuring the MTT signal on a CARIOstar Plus microplate reader (BMT labtech, Germany). Each experiment was performed three times, each in triplicates.

[1] = target: T1, HEK293 cell lysates (proteome-wide targets of probe 9) (Homo sapiens, UniProt P46782); assay: Competitive ABPP / direct target identification with alkyne probe 9 in HEK293 cell lysates; assay type: binding, H. sapiens; settings: protein RPS5
T1 construct: endogenous in cells; host or cells: HEK293 cell lysate

[2] = target: T2, HEK293 cell lysates (proteome-wide targets of probe 9) (Homo sapiens, UniProt P62258); assay: as above; assay type: binding, H. sapiens; settings: protein YWHAE
T2 construct: endogenous in cells; host or cells: HEK293 cell lysate

[3] = target: T3, HEK293 cell lysates (proteome-wide targets of probe 9) (Homo sapiens, UniProt P25398); assay: as above; assay type: binding, H. sapiens; settings: protein RPS12
T3 construct: endogenous in cells; host or cells: HEK293 cell lysate

[4] = target: T4, HEK293 cell lysates (proteome-wide targets of probe 9) (Homo sapiens, UniProt P14174); assay: as above; assay type: binding, H. sapiens; settings: protein MIF
T4 construct: endogenous in cells; host or cells: HEK293 cell lysate

[5] = target: T5, HEK293 cell lysates (proteome-wide targets of probe 9) (Homo sapiens, UniProt Q00839); assay: as above; assay type: binding, H. sapiens; settings: protein HNRNPU
T5 construct: endogenous in cells; host or cells: HEK293 cell lysate

[6] = target: T6, HEK293 cell lysates (proteome-wide targets of probe 9) (Homo sapiens, UniProt Q04837); assay: as above; assay type: binding, H. sapiens; settings: protein SSBP1
T6 construct: endogenous in cells; host or cells: HEK293 cell lysate

[7] = target: T7, HEK293 cell lysates (proteome-wide targets of probe 9) (Homo sapiens, UniProt Q99832); assay: as above; assay type: binding, H. sapiens; settings: protein CCT7
T7 construct: endogenous in cells; host or cells: HEK293 cell lysate

[8] = target: T8, HEK293 cell lysates (proteome-wide targets of probe 9) (Homo sapiens, UniProt Q13085); assay: as above; assay type: binding, H. sapiens; settings: protein ACACA
T8 construct: endogenous in cells; host or cells: HEK293 cell lysate

[9] = target: T9, HEK293 cell lysates (proteome-wide targets of probe 9) (Homo sapiens, UniProt P23528); assay: as above; assay type: binding, H. sapiens; settings: protein CFL1
T9 construct: endogenous in cells; host or cells: HEK293 cell lysate

[10] = target: T10, HEK293 cell lysates (proteome-wide targets of probe 9) (Homo sapiens, UniProt P36578); assay: as above; assay type: binding, H. sapiens; settings: protein RPL4
T10 construct: endogenous in cells; host or cells: HEK293 cell lysate

[11] = target: T11, HEK293 cell lysates (proteome-wide targets of probe 9) (Homo sapiens, UniProt Q06830); assay: as above; assay type: binding, H. sapiens; settings: protein PRDX1
T11 construct: endogenous in cells; host or cells: HEK293 cell lysate

[12] = target: T12, HEK293 cell lysates (proteome-wide targets of probe 9) (Homo sapiens, UniProt P61978); assay: as above; assay type: binding, H. sapiens; settings: protein HNRNPK
T12 construct: endogenous in cells; host or cells: HEK293 cell lysate

[13] = test system: HEK293 cell lysates (proteome-wide targets of probe 9); assay: as above; assay type: binding, H. sapiens
[14] = target: T13, HEK293 cell lysates (proteome-wide targets of probe 9) (Homo sapiens, UniProt P61247); assay: as above; assay type: binding, H. sapiens; settings: protein RPS3A
T13 construct: endogenous in cells; host or cells: HEK293 cell lysate

[15] = target: T14, HEK293 cell lysates (proteome-wide targets of probe 9) (Homo sapiens, UniProt P26373); assay: as above; assay type: binding, H. sapiens; settings: protein RPL13
T14 construct: endogenous in cells; host or cells: HEK293 cell lysate

[16] = target: T15, HEK293 cell lysates (proteome-wide targets of probe 9) (Homo sapiens, UniProt Q6V1X1); assay: as above; assay type: binding, H. sapiens
T15 construct: endogenous in cells; host or cells: HEK293 cell lysate

[17] = target: T16, HEK293 cell lysates (proteome-wide targets of probe 9) (Homo sapiens, UniProt P62829); assay: as above; assay type: binding, H. sapiens; settings: protein RPL23
T16 construct: endogenous in cells; host or cells: HEK293 cell lysate

[18] = target: T17, HEK293 cell lysates (proteome-wide targets of probe 9) (Homo sapiens, UniProt P08670); assay: as above; assay type: binding, H. sapiens; settings: protein VIM
T17 construct: endogenous in cells; host or cells: HEK293 cell lysate

[19] = target: T18, HEK293 cell lysates (proteome-wide targets of probe 9) (Homo sapiens, UniProt P63261); assay: as above; assay type: binding, H. sapiens; settings: protein ACTG1
T18 construct: endogenous in cells; host or cells: HEK293 cell lysate

[20] = target: T19, HEK293 cell lysates (proteome-wide targets of probe 9) (Homo sapiens, UniProt P07195); assay: as above; assay type: binding, H. sapiens; settings: protein LDHB
T19 construct: endogenous in cells; host or cells: HEK293 cell lysate

[21] = target: T20, HEK293 cell lysates (proteome-wide targets of probe 9) (Homo sapiens, UniProt P68363); assay: as above; assay type: binding, H. sapiens; settings: protein TUBA1B
T20 construct: endogenous in cells; host or cells: HEK293 cell lysate

[22] = target: T21, HEK293 cell lysates (proteome-wide targets of probe 9) (Homo sapiens, UniProt P10599); assay: as above; assay type: binding, H. sapiens; settings: protein TXN
T21 construct: endogenous in cells; host or cells: HEK293 cell lysate

[23] = target: T22, HEK293 cell lysates (proteome-wide targets of probe 9) (Homo sapiens, UniProt P46776); assay: as above; assay type: binding, H. sapiens; settings: protein RPL27A
T22 construct: endogenous in cells; host or cells: HEK293 cell lysate

[24] = protein HIST1H1C;HIST1H1E;HIST1H1D
[25] = protein group Histone H2A type 1 (HIST1H2AG and others)
[26] = protein DPP8 (Dipeptidyl peptidase 8)

CCCCCCP(=O)(OCC)N1CCC[C@H](N)C1=O (stereo partly drawn) [Compound 5]
Cell viability normalized to mock treated cells + 0 µM MMC (HeLa wild-type cells): 95.9127% and 99.5028% and 95.7865% and 114.42% and 79.6662% and 94.1915% and 91.8119% and 83.2505% and 91.8375%
95% confidence interval of difference (HeLa wild-type cells): -2,823 to 18,38

C#CCCCP(=O)(OCC)N1CCCC(N)C1=O.O=C(O)C(F)(F)F (mixture of isomers) [Compound 9]
Log2-fold change (9/DMSO) [1]: 0.2495
Log2-fold change (9/DMSO) [2]: 0.2377
Log2-fold change (9/DMSO) [3]: -1.46
Log2-fold change (9/DMSO) [4]: 2.233
Log2-fold change (9/DMSO) [5]: -0.419
Log2-fold change (9/DMSO) [6]: -1.05
Log2-fold change (9/DMSO) [7]: -0.08905
Log2-fold change (9/DMSO) [8]: -0.276
Log2-fold change (9/DMSO) [9]: 0.4225
Log2-fold change (9/DMSO) [10]: -0.3595
Log2-fold change (9/DMSO) [11]: 0.4333
Log2-fold change (9/DMSO) [12]: 0.1297
proteins significantly enriched by the alkyne probe ([13]; 10 µM probe, HEK293 lysates): significant enrichment of only two proteins, namely DPP9 and the off-target prolyl endopeptidase (PREP)
Log2-fold change (9/DMSO) ([13]; protein EEF1A1;EEF1A1P5;EEF1A2): 0.04533
Log2-fold change (9/DMSO) ([13]; protein EIF5A;EIF5AL1): 1.278
Log2-fold change (9/DMSO) [13, 24]: 0.83
Log2-fold change (9/DMSO) ([13]; protein HNRNPH1;HNRNPH2): -0.1168
Log2-fold change (9/DMSO) ([13]; protein ID A0A1B0GV53): -4.4932
Log2-fold change (9/DMSO) ([13]; protein NME1;NME2): 0.34
Log2-fold change (9/DMSO) ([13]; protein PABPC1;PABPC3): 0.8323
Log2-fold change (9/DMSO) ([13]; protein PGAM1;PGAM2): 1.799
Log2-fold change (9/DMSO) ([13]; protein TUBB4B;TUBB4A): 1.386
Log2-fold change (9/DMSO) [13, 25]: -1.664
Log2-fold change (9/DMSO) [14]: 0.9053
Log2-fold change (9/DMSO) [15]: 1.809
Initial LFQ intensity of DPP8 (log2-transformed) ([16]; labeled with 9, single replicates): 21.9345 and 21.2153 and 19.9933
Log2-fold change (9/DMSO) [16, 26]: 1.124
Log2-fold change (9/DMSO) [17]: 0.1532
Log2-fold change (9/DMSO) [18]: 0.9336
Log2-fold change (9/DMSO) [19]: 0.5764
Log2-fold change (9/DMSO) [20]: 0.03494
Log2-fold change (9/DMSO) [21]: 0.8793
Log2-fold change (9/DMSO) [22]: 1.146
Log2-fold change (9/DMSO) [23]: -2.372

CCCCCc1ccc(SCCP(=O)(OCC)N2CCC[C@H](N)C2=O)cc1.O=C(O)C(F)(F)F (stereo partly drawn) [Compound 16]
Cell viability normalized to mock treated cells + 0 µM MMC (HeLa wild-type cells): 97.3681% and 98.2989% and 98.3512% and 104.946% and 88.3417% and 98.5541% and 95.4309% and 92.3469% and 88.9994%
95% confidence interval of difference (HeLa wild-type cells): -4,629 to 16,57
effect on cell viability without MMC (HeLa wild-type cells; HeLa wild-type, 10 µM, 72 h): not toxic to cells; also recorded: did not show cytotoxic effects
Log2-fold change (16/9) [1]: 0.301
Log2-fold change (16/9) [2]: 0.3661
Log2-fold change (16/9) [3]: 0.07588
Log2-fold change (16/9) [4]: -0.05345
Log2-fold change (16/9) [5]: -1.015
Log2-fold change (16/9) [6]: -1.78
Log2-fold change (16/9) [7]: -1.548
Log2-fold change (16/9) [8]: 0.3401
Log2-fold change (16/9) [9]: -0.1396
Log2-fold change (16/9) [10]: 0.07056
Log2-fold change (16/9) [11]: 0.107
Log2-fold change (16/9) [12]: -0.758
competition of labeling by probe 9 ([13]; 50 µM competitor, 10 µM 9, HEK293 lysates): solely DPP9 was competed
Log2-fold change (16/9) ([13]; protein EEF1A1;EEF1A1P5;EEF1A2): -1.204
Log2-fold change (16/9) ([13]; protein EIF5A;EIF5AL1): -2.135
Log2-fold change (16/9) [13, 24]: -0.04142
Log2-fold change (16/9) ([13]; protein HNRNPH1;HNRNPH2): 0.1964
Log2-fold change (16/9) ([13]; protein HSPA1A;HSPA1B): -0.2164
Log2-fold change (16/9) ([13]; protein ID A0A1B0GV53): 0.5692
Log2-fold change (16/9) ([13]; protein NME1;NME2): -0.08451
Log2-fold change (16/9) ([13]; protein PABPC1;PABPC3): -0.421
Log2-fold change (16/9) ([13]; protein PGAM1;PGAM2): -2.097
Log2-fold change (16/9) ([13]; protein RPLP0;RPLP0P6): -0.5558
Log2-fold change (16/9) ([13]; protein TUBB4B;TUBB4A): -2.026
Log2-fold change (16/9) [13, 25]: 0.5881
Log2-fold change (16/9) [14]: -0.3832
Log2-fold change (16/9) [15]: -0.8436
DPP8 identification after pre-incubation with competitor ([16]; labeled with 9, pre-incubated with competitor): peptides of DPP8 were identified
Log2-fold change (16/9) [16, 26]: -1.618
Log2-fold change (16/9) [17]: -1.084
Log2-fold change (16/9) [18]: -0.2472
Log2-fold change (16/9) [19]: -0.3964
Log2-fold change (16/9) [20]: 0.1493
Log2-fold change (16/9) [21]: -1.967
Log2-fold change (16/9) [22]: -0.6696
Log2-fold change (16/9) [23]: 0.01928
